Results on 4 compounds are retold here after patent US9371337B2, “β-lactamase inhibitors” (The Regents of the University of California, priority 2011, dated 2016).

pIC50, pKi: −log10 of the molar value. Several values for one entry are separate records, joined by “and”; a condition that tells them apart may be missing. Equal entries are not always repeated. Where two headings read alike, the source gives them in different places.

The target of series [1] is T1, Trypsin (UniProt P00760).
T1 construct: IC50 (Estimated from single concentration measurement); Ki
T1 sequence (P00760 1-246): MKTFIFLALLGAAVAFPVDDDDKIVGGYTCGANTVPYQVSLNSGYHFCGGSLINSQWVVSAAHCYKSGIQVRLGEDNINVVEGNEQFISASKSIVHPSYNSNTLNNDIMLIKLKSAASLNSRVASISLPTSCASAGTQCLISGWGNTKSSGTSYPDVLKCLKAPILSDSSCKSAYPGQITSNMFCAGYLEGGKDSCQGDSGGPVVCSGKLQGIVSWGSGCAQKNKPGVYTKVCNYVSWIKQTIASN
As to the kind of experiment: Trypsin inhibition. It counts as biochemical. Conditions: Table 10, Trypsin. From the text:
(§1) To assess the selectivity of the new molecules we determined Ki values against three common serine proteases, Trypsin, Elastase and α-Chymotrypsin, as well as that of a class A β-lactamase, CTX-M-9 (Table 10) (Pouvreau L, et al. (1998), FEBS Lett 423:167-172; Del Mar E G, et al. (1980), Biochemistry 19:468-472; Rodriguez-Martinez J A, et al. (2009), Biotechnol Lett 31:883-887; Chen Y, et al. (2005), J Mol Biol 348:349-362).

Series [2] concerns Trypsin. As to the kind of experiment: Trypsin inhibition. It counts as biochemical. Particulars: Table 4h, Trypsin vs AmpC.
Series [3] addresses T1, Trypsin. The series is described as follows: Trypsin inhibition. Format: biochemical. Particulars: for Percentage activity with 100 μM inhibitor: Table 4b; for Percentage inhibition with 100 μM inhibitor: Table 4c; for potency estimated from few doses: read-out: IC50 (Estimated from single concentration measurement), Table 4e.
Series [4] relates to clinical strains resistant to third-generation cephalosporins. The series is described as follows: MIC distribution of third-generation cephalosporins alone or with compounds over clinical strains. Format: cell-based. Particulars: for clinical isolates for which MICs dropped into the susceptible range (MICs≦1 μg/mL): cephalosporins combined with the compound; for MIC 25% percentile / MIC 75% percentile: third-generation cephalosporins in combination with the compound. Here is the method: The anti-resistance activity of inhibitors was investigated by the determination of the minimum inhibitory concentrations (MICs) of the β-lactam/inhibitor combination necessary to inhibit the growth of clinically-isolated bacteria resistant to third-generation cephalosporins via expression of class A or class C β-lactamases (Table 6).
Susceptibility testing was performed and interpreted following the guidelines of CLSI. (Clinical and Laboratory Standards Institute, Performance standards for antimicrobial susceptibility testing, 20th Informational Supplement, M100-S20 2010) The compounds were dissolved in 50% DMSO, and dilutions were performed using Muller-Hinton medium. An adequate final concentration was obtained to determine the minimum inhibitory concentrations (MICs). The concentration of DMSO was maintained below 5%. The inhibitors were tested for synergy with the third-generation β-lactams ceftazidime and cefotaxime against several clinical bacteria. The ratio of β-lactams to inhibitors was 1:4. Each value reported reflects the average of three independent experiments. […] The Friedman's test and the Wilcoxon signed rank test were used to compare MIC values. Statistical significance was established at p<0.05.

Series [5] has as its target T2, AmpC β-lactamase (Escherichia coli, UniProt P00811).
T2 construct: made in house
Format: biochemical. Conditions: for type of inhibition: Lineweaver-Burk analysis, competition with substrate CENTA; for time dependence of inhibition (incubation effect, off-rate): enzyme incubation and dilution experiments.

In series [6] the target is T2, AmpC β-lactamase. The series is described as follows: biochemical. It counts as biochemical. The procedure: FIG. 18. Representative IC50 curves. […] IC50 curves were obtained by measuring rates (in duplicates) at different inhibitor concentrations (x-axis) and by determining the residual activity (y-axis, in percentage). IC50 values were determined by non-linear regression and Ki values calculated using GraphPad software assuming competitive inhibition.
Sulfonamidomethaneboronic acids were dissolved in 100% DMSO at a concentration of 100 mM; more diluted stocks were prepared as necessary. […] The enzyme was expressed and purified as described (Usher, K. C. et al., Biochemistry 1998, 37, 16082-16092) and CENTA was purchased from Tydock Pharma.
Kinetic measurements were run at room temperature in 50 mM sodium-cacodylate pH 6.5 in the presence of 0.01% Triton-X to prevent non-specific inhibition via compound aggregation. […] (Kettner, C. A. and Shenvi, A. B., J. Biol. Chem. 1984, 259, 15106-15114) Reactions were performed in 1 mL cuvettes with 60 μM CENTA and initiated by adding 1.2 nM enzyme. […] (Weston, G. S. et al., J. Med. Chem. 1998, 41, 4577-4586) The first 180 sec of each reaction were used to measure initial rates. IC50 values were obtained by fitting binding data to a sigmoidal dose-response equation using GraphPad Prism (GraphPad software, Inc). Ki values were determined by the use of Cheng-Prusoff equation. (Cheng, Y. and Prusoff, W. H., Biochem. Pharmacol. 1973, 22, 3099-3108)

The target of the next series is CTX-M-9 β-lactamase (Escherichia coli, UniProt Q9L5C8). As to the kind of experiment: biochemical. It counts as biochemical. Conditions: for Selectivity vs AmpC (comparison of IC50 values): Table 4h, CTX-M-9 vs AmpC; for potency estimated from few doses: read-out: IC50 (Estimated from single concentration measurement); for inhibition at 16 µM: read-out: Percentage inhibition with 16 μM inhibitor. Here is the method:
Reactions were initiated by the addition of 0.3 nM enzyme and monitored at 405 nm.
as §1

Another series deals with Elastase. The series is described as follows: Elastase inhibition. Format: biochemical. Conditions: Table 4h, Elastase vs AmpC.
Source text: as §1

The target in series [7] is T3, α-chymotrypsin (bovine pancreatic) (Bos taurus, UniProt P00766).
T3 construct: purchased Sigma-Aldrich
The series is described as follows: α-Chymotrypsin inhibition. It counts as biochemical. Particulars: for activity at 100 µM: Table 4b, 100 μM inhibitor, read-out: Percentage activity with 100 μM inhibitor; for potency estimated from few doses: Table 4e, read-out: IC50 (Estimated from single concentration measurement); for pKi: Table 10, α-Chymotrypsin; for Selectivity vs AmpC (comparison of IC50 values): Table 4h, Chymotrypsin vs AmpC; for inhibition at 100 µM: read-out: Percentage inhibition with 100 μM inhibitor. Here is the method:
α-Chymotrypsin assays were performed in 50 mM Tris buffer pH 7.5 with 0.01% Triton-X. Inhibitor and 0.001 mg/mL enzyme were incubated at their final concentration for 10 min before the reaction was initiated by the addition of 200 μM N-succinyl-Ala-Ala-Pro-Phe p-nitroanilide and monitored at 410 nm.
as §1

The mark [8] stands for this setting: Ki (from multi- or single concentration measurements), Table 4g.
Setting [9] is: Table 8, read-out: Ki vs CTX-M-9.

T2 sequence (P00811 20-377): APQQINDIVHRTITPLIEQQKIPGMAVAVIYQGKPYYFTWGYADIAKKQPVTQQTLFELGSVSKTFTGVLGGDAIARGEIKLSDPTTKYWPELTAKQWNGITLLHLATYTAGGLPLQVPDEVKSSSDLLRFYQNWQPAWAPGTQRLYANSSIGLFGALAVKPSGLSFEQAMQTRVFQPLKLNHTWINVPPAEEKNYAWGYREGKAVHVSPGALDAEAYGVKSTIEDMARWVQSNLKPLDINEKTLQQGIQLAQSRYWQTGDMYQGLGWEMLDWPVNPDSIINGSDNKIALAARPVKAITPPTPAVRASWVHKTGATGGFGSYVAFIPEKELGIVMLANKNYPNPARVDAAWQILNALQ
CTX-M-9 β-lactamase, sequence (Q9L5C8 29-291): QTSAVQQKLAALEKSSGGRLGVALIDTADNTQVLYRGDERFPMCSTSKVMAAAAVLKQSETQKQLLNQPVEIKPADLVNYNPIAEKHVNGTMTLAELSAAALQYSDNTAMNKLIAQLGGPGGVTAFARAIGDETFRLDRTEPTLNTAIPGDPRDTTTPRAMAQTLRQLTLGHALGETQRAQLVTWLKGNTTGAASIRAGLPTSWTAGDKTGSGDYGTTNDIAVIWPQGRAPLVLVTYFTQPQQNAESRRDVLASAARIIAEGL

For the compound `O=S(=O)(Cc1cccs1)NCB(O)O` [Compound 10], the melting point – broadly, the temperature of the solid-liquid transition – fell in the range of 185 to 188 °C.

Regarding `O=S(=O)(NCB(O)O)c1ccc(-c2nn[nH]n2)nc1` [CR161, [6-(3-tetrazol-5-yl)pyridin-3-sulfonylamino]methaneboronic acid hydrocloride], the pKi on Trypsin [1] is 3.46; on AmpC β-lactamase [6] (Ki), 8.89 to 9.10; on AmpC β-lactamase [6] (setting [8]), 9.10; on AmpC β-lactamase [6] (Ki Vs AmpC, Table 7), 9.10; at AmpC β-lactamase [6] (Ki vs AmpC, Table 8), 9.10; at AmpC β-lactamase [6] (Ki, Table 5), 9.10. Besides, the pKi is 9.10 on AmpC β-lactamase [6] (Ki, Table 10, AmpC); 5.41 on CTX-M-9 β-lactamase (setting [9]); 3.65 in series [7]. The “Selectivity vs AmpC (comparison of IC50 values)” value (“Selectivity vs AmpC” for short) in the series with Trypsin [2] was 287879; on CTX-M-9 β-lactamase, 1015; with Elastase it was 25799; in series [7], 136364. In addition, on Trypsin [3], the “Percentage activity with 100 μM inhibitor” value came to 95. Besides, the “Percentage inhibition with 100 μM inhibitor” value (“Percentage inhibition” below) at Trypsin [3] stood at 5. For the same compound, the potency estimated from few doses is 1.9 mM at Trypsin [3], 8 µM at CTX-M-9 β-lactamase and 900 µM in series [7]. For the same compound, the “clinical isolates for which MICs dropped into the susceptible range (MICs≦1 μg/mL)” value (“clinical isolates” for short) in series [4] is 75%. Also, the “MIC 25% percentile” value in series [4] was 0.5 µg/mL. For the same compound, in series [4], the “MIC 75% percentile” value came out at 1.5 µg/mL. Further, the type of inhibition result on AmpC β-lactamase [5] is reported as “competitive”. In addition, the “time dependence of inhibition (incubation effect, off-rate)” value (“time dependence of inhibition” below) on AmpC β-lactamase [5] is given as “incubation effect owing to slow off-rates”. Moreover, the pIC50 (as a rule, the IC50 on a negative log10 scale, so that one unit is a factor of ten) on AmpC β-lactamase [6] is 8.18; at CTX-M-9 β-lactamase, 5.17. This compound came in with a Ligand efficiency at AmpC β-lactamase [6] (Table 5) of 0.64. The inhibition (in general, the change of the read-out against control, counted positive when it falls) at 16 µM at CTX-M-9 β-lactamase was determined as 66%. The activity at 100 µM in series [7] was determined as 90%. Moreover, the inhibition at 100 µM in series [7] is 10%.

Take `O=C(O)c1cccc(CS(=O)(=O)NCB(O)O)c1` [CR167, [3-(Carboxyphenyl)methanesulfonylamino]methaneboronic acid]: the pKi is 3.46 on Trypsin [1]; 8.89 to 9.10 and 8.89 on AmpC β-lactamase [6] (Ki); 8.89 on AmpC β-lactamase [6] (setting [8]); 8.89 at AmpC β-lactamase [6] (Ki Vs AmpC, Table 7); 8.89 on AmpC β-lactamase [6] (Ki vs AmpC, Table 8); 8.89 at AmpC β-lactamase [6] (Ki, Table 5). In addition, the pKi on AmpC β-lactamase [6] (Ki, Table 10, AmpC) was 8.89; on CTX-M-9 β-lactamase (read-out: Ki), 7.35; in series [7], 2.61. In addition, the “Selectivity vs AmpC” value with Trypsin [2] came out at 292308; at CTX-M-9 β-lactamase, 19; in the series on Elastase, 22139; in series [7], 1523077. Moreover, the “Percentage activity with 100 μM inhibitor” value on Trypsin [3] was found to be 95. In addition, on Trypsin [3], the “Percentage inhibition” value turned out to be 5. The potency estimated from few doses was 1.9 mM on Trypsin [3], 0.162 µM at CTX-M-9 β-lactamase and 9900 µM in [7]. For the same compound, the “clinical isolates” value in [4] amounted to 75%. For the same compound, the “MIC 25% percentile” value in series [4] was 0.5 µg/mL. Besides, the “MIC 75% percentile” value in series [4] was determined as 1.5 µg/mL. Moreover, the type of inhibition entry on AmpC β-lactamase [5] is recorded as “competitive”. Besides, the “time dependence of inhibition” value on AmpC β-lactamase [5] is “incubation effect owing to slow off-rates”. In addition, the figures for the pIC50 against AmpC β-lactamase [6] and against CTX-M-9 β-lactamase were 8.19 and 6.90, respectively. In addition, the Ligand efficiency on AmpC β-lactamase [6] (Table 5) worked out at 0.66. Moreover, the “selectivity towards AmpC versus CTX-M-9 β-lactamase” value on CTX-M-9 β-lactamase (ratio of Ki values) is given as ~30 fold. Also, the inhibition at 16 µM on CTX-M-9 β-lactamase worked out at 99%. Besides, the activity at 100 µM in series [7] came to 99%. Besides, the inhibition at 100 µM in series [7] is 1%.

`O=S(=O)(NCB(O)O)c1ccc(-c2nnn[nH]2)cc1C(F)(F)F` [CR192, [4-(3-tetrazol-5-yl)-2-trifluoromethyl-benzensulfonylamino]methaneboronic acid]: the pKi at Trypsin [1] was 3.35; at AmpC β-lactamase [6] (Table 4g, read-out: Ki (from multi- or single concentration measurements)), 10.30; at AmpC β-lactamase [6] (Table 5, read-out: Ki), 10.30; on AmpC β-lactamase [6] (Table 7, read-out: Ki Vs AmpC), 10.30; on AmpC β-lactamase [6] (Table 8, read-out: Ki vs AmpC), 10.30; at AmpC β-lactamase [6] (Table 10, AmpC, read-out: Ki), 10.30. Besides, the pKi at AmpC β-lactamase [6] (running text and FIG. 18, substrate CENTA 105 μM, read-out: Ki) is 10.30; on CTX-M-9 β-lactamase (setting [9]), 5.74; in series [7], 3.85. Moreover, the “Selectivity vs AmpC” value was found to be 6000000 with Trypsin [2], 11948 at CTX-M-9 β-lactamase, 34091 in the series on Elastase and 1416667 in [7]. Further, the “Percentage activity with 100 μM inhibitor” value at Trypsin [3] turned out to be 96. The “Percentage inhibition” value at Trypsin [3] amounted to 4. Besides, the potency estimated from few doses was 2.4 mM at Trypsin [3], 5 µM on CTX-M-9 β-lactamase and 567 µM in series [7]. In addition, the “clinical isolates” value in series [4] turned out to be 50%. Besides, in [4], the “MIC 25% percentile” value was 1.0 µg/mL. Further, the “MIC 75% percentile” value in series [4] stood at 2.0 µg/mL. Further, the type of inhibition result at AmpC β-lactamase [5] is given as “competitive”. For the same compound, the “time dependence of inhibition” value on AmpC β-lactamase [5] is given as “slow off-rate”. For the same compound, the pIC50 on AmpC β-lactamase [6] is 9.40; against CTX-M-9 β-lactamase it was 5.30. At AmpC β-lactamase [6] (50 pM AmpC, 500 pM inhibitor, with or without 5 minutes pre-incubation), the “time until substrate hydrolysis rates converge (equilibrium)” value lay within 10 to 15 min. Besides, the Ligand efficiency on AmpC β-lactamase [6] (Table 5) turned out to be 0.60. Further, at AmpC β-lactamase [6] (ratio of Ki values), the “improved affinity compared to CR157” value turned out to be 24 fold. The inhibition at 16 µM on CTX-M-9 β-lactamase came out at 77%. Besides, the activity at 100 µM in [7] turned out to be 85%. In addition, the inhibition at 100 µM in series [7] is 15%.
